Experimental data published in ChEMBL document CHEMBL1130733, “Synthesis and structure-activity relationships of pyridine-modified analogs of 3-[2-((S)-pyrrolidinyl)methoxy]pyridine, A-84543, a potent nicotinic acetylcholine receptor agonist” (Bioorg Med Chem Lett, 1998).

Experiments:
[1] = target: Nicotinic acetylcholine receptor alpha3/betaX; assay: Stimulation of cation efflux in Nicotinic acetylcholine receptor alpha3-betaX subtype expressing IMR-32 cells; assay type: functional, cell-based, Homo sapiens
[2] = target: T1, Neuronal acetylcholine receptor; alpha4/beta2 (Homo sapiens, UniProt P17787+P43681); assay: Maximal efficacy relative to 100 uM nicotine in human nAChR alpha4-beta2 expressing K177 cells; assay type: cell-based
[3] = target: Neuronal acetylcholine receptor; alpha4/beta2 (Rattus norvegicus, UniProt P09483+P12390); assay: Binding affinity towards nAChR (alpha4-beta2) by the displacement of [3H](-)-cytisine in whole rat brain membranes.; assay type: cell membranes
[4] = target: T1, Neuronal acetylcholine receptor; alpha4/beta2; assay: Stimulation of cation efflux in human nAChR alpha4-beta2 expressing K177 cells; assay type: cell-based
[5] = target: T1, Neuronal acetylcholine receptor; alpha4/beta2; assay: Inhibition of cation efflux in human nAChR alpha4-beta2 expressing K177 cells; assay type: cell-based
[6] = target: T1, Neuronal acetylcholine receptor; alpha4/beta2; conditions: IMR-32
Description: Maximal efficacy in nAChR subtype human alpha3betaX, expressed in IMR-32 cells

[7] = target: T1, Neuronal acetylcholine receptor; alpha4/beta2; conditions: K177
Description: Maximal efficacy in human nAChR alpha4-beta2 expressing K177 cells

[8] = target: Nicotinic acetylcholine receptor alpha3/betaX (Homo sapiens) (UniProt P11230+P17787+P30926+P32297+Q05901); assay: Maximal efficacy relative to 100 uM nicotine in Nicotinic acetylcholine receptor alpha3-betaX subtype expressing IMR-32 cells; assay type: cell-based

T1 sequence (P17787 whole entry): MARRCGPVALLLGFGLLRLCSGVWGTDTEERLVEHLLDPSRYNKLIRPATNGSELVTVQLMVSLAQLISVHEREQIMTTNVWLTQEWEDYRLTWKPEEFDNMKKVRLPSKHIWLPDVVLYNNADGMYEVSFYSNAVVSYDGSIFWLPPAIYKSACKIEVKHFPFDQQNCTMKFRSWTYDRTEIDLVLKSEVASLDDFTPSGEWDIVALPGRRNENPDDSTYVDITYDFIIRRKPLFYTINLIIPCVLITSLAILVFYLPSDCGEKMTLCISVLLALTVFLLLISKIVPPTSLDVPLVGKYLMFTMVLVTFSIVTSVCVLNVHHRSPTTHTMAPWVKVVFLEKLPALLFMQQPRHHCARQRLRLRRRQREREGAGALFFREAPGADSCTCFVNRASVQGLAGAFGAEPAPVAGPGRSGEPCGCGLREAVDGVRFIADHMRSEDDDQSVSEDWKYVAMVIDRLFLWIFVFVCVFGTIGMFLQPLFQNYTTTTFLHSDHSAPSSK
T1 sequence (P43681 whole entry): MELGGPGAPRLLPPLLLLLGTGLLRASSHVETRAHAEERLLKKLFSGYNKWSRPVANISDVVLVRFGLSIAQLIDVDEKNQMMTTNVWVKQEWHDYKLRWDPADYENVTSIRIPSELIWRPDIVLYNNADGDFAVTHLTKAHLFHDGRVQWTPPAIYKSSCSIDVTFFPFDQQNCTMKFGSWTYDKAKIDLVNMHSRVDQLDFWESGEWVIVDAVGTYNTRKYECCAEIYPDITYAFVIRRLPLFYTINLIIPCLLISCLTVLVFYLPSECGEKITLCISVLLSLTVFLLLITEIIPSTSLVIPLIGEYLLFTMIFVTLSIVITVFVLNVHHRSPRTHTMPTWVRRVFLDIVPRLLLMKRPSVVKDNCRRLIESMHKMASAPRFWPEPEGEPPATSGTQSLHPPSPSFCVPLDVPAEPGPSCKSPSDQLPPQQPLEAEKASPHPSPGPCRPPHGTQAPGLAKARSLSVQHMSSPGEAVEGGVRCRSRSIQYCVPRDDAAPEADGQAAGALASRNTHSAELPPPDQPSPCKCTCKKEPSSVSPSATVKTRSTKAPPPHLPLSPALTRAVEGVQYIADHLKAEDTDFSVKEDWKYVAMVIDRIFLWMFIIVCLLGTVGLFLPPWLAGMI
Chain of Neuronal acetylcholine receptor; alpha4/beta2 (Rattus norvegicus, UniProt P09483+P12390) (P09483 whole entry): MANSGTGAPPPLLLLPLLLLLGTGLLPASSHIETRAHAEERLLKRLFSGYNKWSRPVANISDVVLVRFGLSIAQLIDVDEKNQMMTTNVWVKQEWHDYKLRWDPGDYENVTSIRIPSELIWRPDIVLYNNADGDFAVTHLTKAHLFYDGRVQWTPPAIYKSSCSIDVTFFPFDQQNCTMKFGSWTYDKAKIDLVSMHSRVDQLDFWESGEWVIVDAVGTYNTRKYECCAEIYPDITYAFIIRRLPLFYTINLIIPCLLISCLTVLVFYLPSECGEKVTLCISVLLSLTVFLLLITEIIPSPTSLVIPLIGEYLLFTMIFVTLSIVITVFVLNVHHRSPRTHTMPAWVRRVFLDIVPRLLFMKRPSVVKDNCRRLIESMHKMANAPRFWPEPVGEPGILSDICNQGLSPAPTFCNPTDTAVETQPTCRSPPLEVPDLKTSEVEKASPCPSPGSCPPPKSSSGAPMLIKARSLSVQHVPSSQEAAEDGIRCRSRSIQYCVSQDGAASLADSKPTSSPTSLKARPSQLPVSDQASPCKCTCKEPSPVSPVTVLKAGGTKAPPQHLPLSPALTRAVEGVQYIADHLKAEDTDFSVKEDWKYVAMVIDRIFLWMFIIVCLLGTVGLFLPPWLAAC
Chain of Neuronal acetylcholine receptor; alpha4/beta2 (Rattus norvegicus, UniProt P09483+P12390) (P12390 whole entry): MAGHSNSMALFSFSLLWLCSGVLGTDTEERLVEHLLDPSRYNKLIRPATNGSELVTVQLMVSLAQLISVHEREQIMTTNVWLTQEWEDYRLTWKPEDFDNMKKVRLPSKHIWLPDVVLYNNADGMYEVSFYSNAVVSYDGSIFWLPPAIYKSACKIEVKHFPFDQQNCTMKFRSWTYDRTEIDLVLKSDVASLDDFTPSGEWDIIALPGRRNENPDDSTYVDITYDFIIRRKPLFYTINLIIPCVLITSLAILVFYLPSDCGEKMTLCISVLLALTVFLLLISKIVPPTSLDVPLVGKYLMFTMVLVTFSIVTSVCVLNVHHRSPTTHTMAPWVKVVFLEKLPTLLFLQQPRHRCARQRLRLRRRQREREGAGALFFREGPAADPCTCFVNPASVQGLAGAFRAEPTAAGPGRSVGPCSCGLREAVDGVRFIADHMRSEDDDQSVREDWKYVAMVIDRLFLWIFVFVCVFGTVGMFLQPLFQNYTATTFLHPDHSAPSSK

SMILES | EC50 [1] [µM] | Max [2] [%] | Ki [3] [µM] | EC50 [4] [µM] | also measured
CN1CCC[C@H]1COc1ccc(Br)nc1 | > 1000 | 42.5 | 0.00191 | 2.6 | 
Cc1ccncc1OC[C@@H]1CCCN1C | > 1000 | 73.9 | 0.00412 | 2.1 | 
CN1CCC[C@H]1COc1cncc([N+](=O)[O-])c1 |  |  | 0.00465 |  | 
CC(C)Cc1cncc(OC[C@@H]2CCCN2C)c1 |  |  | 0.00021 |  | 
CN1CCC[C@H]1COc1cncc(C(F)(F)F)c1 |  |  | 0.00183 |  | 
CN1CCC[C@H]1COc1cccnc1[N+](=O)[O-] |  |  | 9 |  | 
CN1CCC[C@H]1COc1ccc(F)nc1 |  |  | 0.00256 |  | 
CCNc1cncc(OC[C@@H]2CCCN2C)c1 |  |  | 0.0037 |  | 
CCc1cncc(OC[C@@H]2CCCN2C)c1 | > 1000 | 33.7 | 0.00032 | 1 | 
CCCc1cncc(OC[C@@H]2CCCN2C)c1 | > 1000 | 13 | 0.00012 | > 1000 | IC50 [5]: 2.4 µM
CSc1ncccc1OC[C@@H]1CCCN1C |  |  | 0.559 |  | 
CN1CCC[C@H]1COc1cccnc1I |  |  | 0.606 |  | 
CN1CCC[C@H]1c1cccnc1 |  |  |  |  | Max [6]: 100%; Max [7]: 100%
CCN(CC)C(=O)c1ccncc1OC[C@@H]1CCCN1C |  |  | 2.83 |  | 
CN1CCC[C@H]1COc1cncc(F)c1 |  |  | 0.00069 |  | 
CN1CCC[C@H]1COc1cncc(Cl)c1 |  |  | 0.0006 |  | 
CN1CCC[C@H]1COc1cnccc1Br | > 1000 | 14.1 | 0.028 | > 1000 | 
CN1CCC[C@H]1COc1cccnc1 | 19.4 | 100 | 0.00015 |  | Max [8]: 73.2%
Cc1ncccc1OC[C@@H]1CCCN1C | 18.2 | 26.7 | 0.0229 | 4.8 | Max [8]: 27.7%
CN1CCC[C@H]1COc1cc(Br)c[n+]([O-])c1 |  |  | 0.0348 |  | 
CN1CCC[C@H]1COc1cccnc1Br | > 1000 | 12.3 | 0.451 | > 1000 | 
CN1CCC[C@H]1COc1cncc(N)c1 |  |  | 0.00063 |  | 
CN1CCC[C@H]1COc1cncc(Br)c1 |  | 41.8 | 0.00027 | 5.95 | 
CCCCCCc1cncc(OC[C@@H]2CCCN2C)c1 |  |  | 0.00032 |  | 
CN1CCC[C@H]1COc1ccc(CO)nc1 |  |  | 0.0974 |  | 
Cc1cncc(OC[C@@H]2CCCN2C)c1 | 2.9 | 77 | 0.00048 | 2.3 | 
CCCCc1cncc(OC[C@@H]2CCCN2C)c1 | > 1000 | 14 | 0.00016 | > 1000 | IC50 [5]: 0.64 µM
CN1CCC[C@H]1COc1ccc(Cl)nc1 | 27.1 | 108 | 0.00064 | 1.4 | 
Cc1ccc(OC[C@@H]2CCCN2C)cn1 | 13.4 | 54.4 | 0.00126 | 2.2 | 
